Test results from the SangsterLogP compilation.

O=C(NCCN1CCC(n2c(=O)[nH]c3cc(Cl)ccc32)CC1)c1ccc(F)cc1
logP: 4.02

CCN1CCCC1CNC(=O)c1cc(S(=O)(=O)CC)c(N)cc1OC (stereo unspecified)
logP: 2.42

COc1cccc(C(=O)NC2C[C@H]3CC[C@@H](C2)N3Cc2ccccc2)c1OC (stereo partly specified)
logP: 3.07

C=CCN1CCCC1CNC(=O)c1cc2[nH]nnc2cc1OC (stereo unspecified)
logP: 2.22

COc1ccc(S(N)(=O)=O)cc1C(=O)NCC1CCCN1C (stereo unspecified)
logP: 1.01

CCN1CCCC1CNC(=O)c1cc(S(=O)(=O)CC)ccc1OC (stereo unspecified)
logP: 2.05

COc1cc(C(=O)NCc2ccc(OCCN(C)C)cc2)cc(OC)c1OC
logP: 2.04

OCCN1CCN(CCCN2c3ccccc3Sc3ccc(C(F)(F)F)cc32)CC1
logP: 4.55

O=c1[nH]c2ccccc2n1C1CCN(CCCC(c2ccc(F)cc2)c2ccc(F)cc2)CC1
logP: 6.06

COc1ccc(S(N)(=O)=O)cc1C(=O)NCC1CCCN1Cc1ccc(F)cc1 (stereo unspecified)
logP: 2.08

NC(=O)C1(N2CCCCC2)CCN(CCCC(=O)c2ccc(F)cc2)CC1
logP: 2.68
